Reference: ChEMBL document CHEMBL3832078
“And” between values parts separate entries of the source, which are not always exact repeats. Equal values may be shown once.

Experiments:
Assay type in all cases: ADME, organism-based
[1] = (§1) Pharmacokinetic parameters for Levofloxacin evaluated after multiple oral or IV administration of 250, 500 or 750 mg Levofloxacin, to male and/or female subjects of variable age ranges and health status.; set-up: dose 500 mg, dose 750 mg, dose 250 mg, route iv, route oral; settings: human, in vivo; for CL renal: read-out: CL_renal
[2] = system: Homo sapiens; test: as §1; set-up: dose 500 mg, dose 750 mg, dose 250 mg, route iv, route oral; settings: in vivo
[3] = (§2) Pharmacokinetic parameters for Levofloxacin evaluated after oral or IV single dose administration of 250, 500 or 750 mg Levofloxacin to male and/or female subjects of variable age ranges and health status.; set-up: dose 250 mg, dose 500 mg, dose 750 mg, route oral, route iv; settings: human, in vivo
[4] = system: Homo sapiens; test: as §2; set-up: dose 250 mg, dose 500 mg, dose 750 mg, route oral, route iv; settings: in vivo

Work on `C[C@H]1COc2c(N3CCN(C)CC3)c(F)cc3c(=O)c(C(=O)O)cn1c23.C[C@H]1COc2c(N3CCN(C)CC3)c(F)cc3c(=O)c(C(=O)O)cn1c23.O` [LEVOFLOXACIN] yielded a half-life ([1]; iv) of 7.9 h, a CL renal ([1]; iv) of 99 mL/min and a CL/F ([1]; po) of 175 mL/min. It also gave a Tmax ([1]; po) of 1.4 h, a Vd/F ([1]; po) of 102 L and a half-life ([1]; po) of 8.8 h. For the same compound, the CL renal ([1]; po) was 116 mL/min, the AUC [2] was 72.5 mcg.hr/mL [middle of 5 runs] and the Cmax [2] was 8.6 mcg/mL [middle of 5 runs]. The CL/F ([2]; iv) was 154 mL/min and 126 mL/min and 158 mL/min, the Vd/F ([2]; iv) was 111 L and 80 L and 91 L and the t1/2 ([2]; iv) was 7 h. The CL/F ([2]; po) was 143 mL/min, the Vd/F ([2]; po) was 100 L and the Tmax ([3]; iv) was 1 h. It also gave a half-life ([3]; iv) of 6.4 h, a CL renal ([3]; iv, read-out: CL_renal) of 112 mL/min and a Vd/F ([3]; po) of 112 L. For the same compound, the CL/F ([4]; iv) was 175 mL/min and 126 mL/min, the Vd/F ([4]; iv) was 90 L and 75 L and the t1/2 ([4]; iv) was 7.5 h. For the same compound, the Vd/F ([4]; po) was 83 L and 89 L and 62 L and 67 L.
